According to patent US4263323A, “β-Receptor blocking compounds and treatment of cardiovascular disorders therewith” (priority 1979, dated 1981):

Key:
[1] = target: T1, cardiac β-receptors (Felis catus, UniProt Q9TST6); experiment: β-blockade of isoprenaline heart rate response, reserpinized anesthetized cat; assay type: in vivo; details: iv, 0.012-51.2 μmol/kg, isoproterenol 0.1 μg/kg i.v.
T1 construct: from tissue; host or cells: heart of the living, reserpinized, anesthetized cat (in vivo heart rate)
Description: The new compounds have valuable pharmacological properties. Thus they block cardiac β-receptors, which is shown at the determination of the antagonism of tachycardia after an intravenous injection of 0.1 ug/kg of 1-isoproterenol sulphate on an anaesthetized cat at an intravenous dose of 0.012-51.2 umol/kg. The compounds are heart selective with regard to their β-blocking activity.
The agents of the present invention were tested as regards their biological properties. All compounds were thereby tested in anesthetized cats (males and females weighing 2.5-3.5 kg) pretreated with reserpine (5 mg/kg bodyweight administered intramuscularly) about 16 hours before the experiments. The animals were pretreated with reserpine in order to eliminate the endogenous sympathetic control of heart rate and vascular smooth muscle tone. The cats were anesthetized with pentobarbital (30 mg/kg bodyweight administered i.p.) and artificially ventilated with room air. A bilateral vagotomy was performed in the neck. […] Vascular resistance in one hind leg was recorded by an autoperfusion technique. […] Blockade of the heart rate and vascular resistance response to isoproterenol was calculated for each dose and expressed as percent decrease of the response obtained when isoproterenol was injected before any dose of the test compound. […]

[2] = target: T2, β-receptors (vascular resistance in one hind leg) (Felis catus, UniProt Q9TST5); experiment: β-blockade of isoprenaline peripheral resistance response (hind leg), reserpinized anesthetized cat; assay type: in vivo; details: iv, 0.012-51.2 μmol/kg, isoproterenol 0.1 μg/kg i.v.
T2 construct: from tissue; host or cells: hind-leg vasculature of the living, reserpinized, anesthetized cat (in vivo)
Description: (§1) The agents of the present invention were tested as regards their biological properties. All compounds were thereby tested in anesthetized cats (males and females weighing 2.5-3.5 kg) pretreated with reserpine (5 mg/kg bodyweight administered intramuscularly) about 16 hours before the experiments. The animals were pretreated with reserpine in order to eliminate the endogenous sympathetic control of heart rate and vascular smooth muscle tone. The cats were anesthetized with pentobarbital (30 mg/kg bodyweight administered i.p.) and artificially ventilated with room air. A bilateral vagotomy was performed in the neck. Blood pressure was obtained from a cannulated carotid artery and heart rate was registered from a cardiotachometer, triggered by the electrocardiogram (ECG). Vascular resistance in one hind leg was recorded by an autoperfusion technique. Intrinsic beta mimetic activity on the heart was seen as increased heart rate after drug administration. The test compounds were given intravenously in logarithmically increasing doses. […] Blockade of the heart rate and vascular resistance response to isoproterenol was calculated for each dose and expressed as percent decrease of the response obtained when isoproterenol was injected before any dose of the test compound. […]

[3] = tested on: heart rate; experiment: Intrinsic beta mimetic activity on the heart, reserpinized cat; assay type: in vivo
Description: as §1

[4] = target: T3, α-receptors (Rattus norvegicus, UniProt P43140); experiment: α-receptor blocking activity in isolated rat vas deferens (noradrenaline contraction); details: read-out: pA2 (α-receptor blocking activity) (converted)
T3 construct: from tissue; host or cells: isolated rat vas deferens
T3 sequence (P43140 1-466): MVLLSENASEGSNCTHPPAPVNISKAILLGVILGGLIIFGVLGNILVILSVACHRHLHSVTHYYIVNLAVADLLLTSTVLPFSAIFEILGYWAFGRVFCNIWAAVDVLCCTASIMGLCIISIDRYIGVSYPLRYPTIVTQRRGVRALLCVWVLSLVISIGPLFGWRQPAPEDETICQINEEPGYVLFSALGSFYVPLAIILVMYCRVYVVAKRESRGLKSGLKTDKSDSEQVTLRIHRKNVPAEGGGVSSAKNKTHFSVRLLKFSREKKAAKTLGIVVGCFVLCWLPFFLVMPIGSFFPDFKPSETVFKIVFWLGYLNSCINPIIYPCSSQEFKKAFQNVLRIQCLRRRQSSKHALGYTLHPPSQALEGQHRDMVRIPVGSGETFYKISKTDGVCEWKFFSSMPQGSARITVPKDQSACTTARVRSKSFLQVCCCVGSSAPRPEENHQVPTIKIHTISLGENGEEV
Description: α-receptor blocking activity was tested in isolated rat vas deferens. Noradrenaline administered to the organ bath induces a contraction in vas deferens by activating α-receptors. The ability of the test compounds to inhibit this noradrenaline response was studied. The α-receptor blocking activity was expressed as pA2 values. pA2 is defined as the negative logarithm of the concentration of an antagonist (in our case the test compounds) which leads to the fact that the dose of the agonist (in our case noradrenaline) has to be doubled in order to obtain the same effect of the agonist as that obtained without the antagonist present. Thus a high pA2 value indicates a high α-receptor blocking activity of a compound.

T1 sequence (Q9TST6 whole entry): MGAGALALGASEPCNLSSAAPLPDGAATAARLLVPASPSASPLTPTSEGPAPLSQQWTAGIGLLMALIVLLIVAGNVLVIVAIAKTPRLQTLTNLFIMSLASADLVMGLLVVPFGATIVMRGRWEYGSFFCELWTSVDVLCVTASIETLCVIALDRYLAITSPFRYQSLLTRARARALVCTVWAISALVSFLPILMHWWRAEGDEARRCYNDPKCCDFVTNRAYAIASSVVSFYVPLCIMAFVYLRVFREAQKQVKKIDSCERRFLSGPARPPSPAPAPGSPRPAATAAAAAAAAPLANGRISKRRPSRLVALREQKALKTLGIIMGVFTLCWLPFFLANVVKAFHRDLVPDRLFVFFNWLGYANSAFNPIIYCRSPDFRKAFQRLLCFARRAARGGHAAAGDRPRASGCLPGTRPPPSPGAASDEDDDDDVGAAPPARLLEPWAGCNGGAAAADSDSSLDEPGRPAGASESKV
T2 sequence (Q9TST5 whole entry): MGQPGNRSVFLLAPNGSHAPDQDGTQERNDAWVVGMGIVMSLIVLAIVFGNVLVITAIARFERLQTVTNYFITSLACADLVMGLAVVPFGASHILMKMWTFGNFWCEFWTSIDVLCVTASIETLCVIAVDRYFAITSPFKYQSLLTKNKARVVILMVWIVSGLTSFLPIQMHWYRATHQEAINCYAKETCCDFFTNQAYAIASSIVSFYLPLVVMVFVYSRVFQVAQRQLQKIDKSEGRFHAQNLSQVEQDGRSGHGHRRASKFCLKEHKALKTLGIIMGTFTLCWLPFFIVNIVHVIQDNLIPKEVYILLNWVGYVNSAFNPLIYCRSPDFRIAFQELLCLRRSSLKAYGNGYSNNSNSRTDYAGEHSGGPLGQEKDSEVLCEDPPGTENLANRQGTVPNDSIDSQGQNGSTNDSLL

ED50 [2]: 1.8 µmol/kg | Kb [4]: 3.16 µM
SMILES: COCCNC(=O)COc1ccccc1OCC(O)CNCCOc1ccc(O)cc1 (centres unmarked) [3-[2-(4-hydroxyphenoxy)ethylamino]-1-o-methoxyethylaminocarbonylmethoxyphenoxy-propanol-2]
ED50 [1]: 0.05 µmol/kg | Emax ([3]; Felis catus, iv, % of isoprenaline): 0% | Intrinsic activity Δbeats/min. ([3]; i.v.): 0 beats/min
